Test results as given in US10030004B2, “Compounds and methods of use” (Medivation Technologies LLC, priority 2014, dated 2018).
Where two headings read alike, the source gives them in different places.

Experiments:
[1] = biological target: ALK3 (BMPR1A) (Homo sapiens (Human), UniProt P36894); assay: In vitro kinase assay, ALK3; type: biochemical; settings: read-out: Inhibition of ALK3 IC50
[2] = Pharmacokinetics and bioavailability in male mice after a single dose; type: in vivo; settings: for AUC(0-t) / Cmax / clearance / half-life / Tmax / bioavailability: mouse, plasma; for half-life: read-out: Terminal t1/2 (converted)
[3] = biological target: ALK6 (BMPR1B) (Homo sapiens (Human), UniProt O00238); assay: In vitro kinase assay, ALK6; type: biochemical; settings: 10 μM ATP; read-out: Inhibition of ALK6 IC50
[4] = Plasma and brain concentrations at 0.5 and 1 h in mice; type: in vivo; settings: for concentration at 0.5 h / concentration at 1 h: male, mouse
[5] = biological target: ALK2 (ACVR1) (Homo sapiens (Human), UniProt Q04771); assay: In vitro kinase assay, ALK2; type: biochemical; settings: read-out: Inhibition of ALK2 IC50
[6] = biological target: ALK1 (ACVRL1) (Homo sapiens (Human), UniProt P37023); assay: In vitro kinase assay, ALK1; type: biochemical; settings: 10 μM ATP; read-out: Inhibition of ALK1 IC50
[7] = brain, IV (2 mg/kg), 0.5 h, read-out: Brain concentration
[8] = brain, IV (2 mg/kg), 1 h, read-out: Brain concentration
[9] = brain, PO (10 mg/kg), 0.5 h, read-out: Brain concentration
[10] = brain, PO (10 mg/kg), 1 h, read-out: Brain concentration
[11] = plasma, IV (2 mg/kg), 0.5 h, read-out: Plasma concentration
[12] = plasma, IV (2 mg/kg), 1 h, read-out: Plasma concentration
[13] = plasma, PO (10 mg/kg), 0.5 h, read-out: Plasma concentration
[14] = plasma, PO (10 mg/kg), 1 h, read-out: Plasma concentration
[15] = brain, 2 mg/kg, IV, 0.5 h, read-out: Brain Concentration
[16] = brain, 2 mg/kg, IV, 1 h, read-out: Brain Concentration
[17] = plasma, 2 mg/kg, IV, 0.5 h, read-out: Plasma Concentration
[18] = plasma, 2 mg/kg, IV, 1 h, read-out: Plasma Concentration
[19] = plasma, 10 mg/kg, PO, 0.5 h, read-out: Plasma Concentration
[20] = plasma, 10 mg/kg, PO, 1 h, read-out: Plasma Concentration
[21] = brain, 10 mg/kg, PO, 0.5 h, read-out: Brain Concentration
[22] = brain, 10 mg/kg, PO, 1 h, read-out: Brain Concentration

ALK6 (BMPR1B), sequence (O00238 14-502): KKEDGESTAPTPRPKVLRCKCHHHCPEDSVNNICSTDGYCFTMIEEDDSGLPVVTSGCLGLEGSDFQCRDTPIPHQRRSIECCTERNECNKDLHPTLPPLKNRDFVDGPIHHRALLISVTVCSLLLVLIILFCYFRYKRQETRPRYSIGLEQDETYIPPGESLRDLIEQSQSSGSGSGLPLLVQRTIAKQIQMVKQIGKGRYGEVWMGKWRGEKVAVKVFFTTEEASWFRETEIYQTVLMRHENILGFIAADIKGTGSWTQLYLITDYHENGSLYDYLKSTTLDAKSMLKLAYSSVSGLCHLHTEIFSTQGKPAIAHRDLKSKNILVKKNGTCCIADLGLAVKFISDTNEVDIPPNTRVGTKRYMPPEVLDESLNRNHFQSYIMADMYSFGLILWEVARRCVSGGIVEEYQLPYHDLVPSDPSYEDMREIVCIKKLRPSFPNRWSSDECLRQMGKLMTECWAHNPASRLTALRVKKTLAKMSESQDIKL
ALK3 (BMPR1A), sequence (P36894 24-532): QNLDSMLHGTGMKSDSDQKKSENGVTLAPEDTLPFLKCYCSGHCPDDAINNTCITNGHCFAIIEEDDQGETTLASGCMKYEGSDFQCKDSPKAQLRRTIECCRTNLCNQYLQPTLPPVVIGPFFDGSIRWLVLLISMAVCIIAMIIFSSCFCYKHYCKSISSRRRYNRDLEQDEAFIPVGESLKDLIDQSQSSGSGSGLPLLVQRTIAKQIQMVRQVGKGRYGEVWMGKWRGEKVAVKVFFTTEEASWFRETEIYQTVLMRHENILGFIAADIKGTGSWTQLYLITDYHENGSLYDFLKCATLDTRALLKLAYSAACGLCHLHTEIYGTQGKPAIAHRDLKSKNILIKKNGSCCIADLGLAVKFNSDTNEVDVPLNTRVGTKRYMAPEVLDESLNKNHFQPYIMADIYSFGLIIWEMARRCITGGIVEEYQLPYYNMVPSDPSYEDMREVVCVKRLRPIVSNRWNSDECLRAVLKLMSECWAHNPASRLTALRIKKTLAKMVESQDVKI
ALK2 (ACVR1), sequence (Q04771 21-509): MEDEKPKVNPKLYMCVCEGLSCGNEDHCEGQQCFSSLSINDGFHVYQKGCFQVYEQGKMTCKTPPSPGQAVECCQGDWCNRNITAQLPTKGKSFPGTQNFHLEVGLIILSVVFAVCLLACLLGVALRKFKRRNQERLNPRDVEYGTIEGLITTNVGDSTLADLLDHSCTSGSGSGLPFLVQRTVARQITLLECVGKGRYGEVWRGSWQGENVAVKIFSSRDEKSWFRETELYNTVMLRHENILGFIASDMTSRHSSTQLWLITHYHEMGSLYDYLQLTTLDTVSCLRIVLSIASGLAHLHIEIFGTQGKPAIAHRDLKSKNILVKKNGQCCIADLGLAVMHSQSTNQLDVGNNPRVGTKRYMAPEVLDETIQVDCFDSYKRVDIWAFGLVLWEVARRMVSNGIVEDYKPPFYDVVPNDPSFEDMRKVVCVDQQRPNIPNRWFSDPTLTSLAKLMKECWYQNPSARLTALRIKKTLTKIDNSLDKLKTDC
ALK1 (ACVRL1), sequence (P37023 22-503): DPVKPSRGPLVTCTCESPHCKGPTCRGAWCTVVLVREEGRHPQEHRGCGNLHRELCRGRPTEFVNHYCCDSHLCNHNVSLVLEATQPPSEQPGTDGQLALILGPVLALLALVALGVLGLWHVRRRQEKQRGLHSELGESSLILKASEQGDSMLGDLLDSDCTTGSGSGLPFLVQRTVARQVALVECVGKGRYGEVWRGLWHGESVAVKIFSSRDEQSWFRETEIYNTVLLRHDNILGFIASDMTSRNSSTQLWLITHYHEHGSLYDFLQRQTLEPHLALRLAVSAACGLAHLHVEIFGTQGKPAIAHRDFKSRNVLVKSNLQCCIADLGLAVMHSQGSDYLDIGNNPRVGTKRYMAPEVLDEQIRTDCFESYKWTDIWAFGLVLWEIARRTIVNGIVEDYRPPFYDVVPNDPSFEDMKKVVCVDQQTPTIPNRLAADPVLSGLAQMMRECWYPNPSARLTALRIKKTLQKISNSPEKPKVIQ

Structure (SMILES)	V ([2]; intravenous, 2 mg/kg)	AUC(0-t) ([2]; intravenous, 2 mg/kg)	Cmax ([2]; intravenous, 2 mg/kg)	clearance ([2]; intravenous, 2 mg/kg)	half-life ([2]; intravenous, 2 mg/kg)	AUC(0-t) ([2]; oral, 10 mg/kg)	Cmax ([2]; oral, 10 mg/kg)	Tmax ([2]; oral, 10 mg/kg)	bioavailability ([2]; oral, 10 mg/kg)	half-life ([2]; oral, 10 mg/kg)	IC50 [3]	IC50 ([5]; 10 μM ATP)	IC50 ([1]; 10 μM ATP)	also measured
COc1cnc(-c2cc(Cl)ccc2F)cc1Nc1ccncc1C(=O)NC[C@H](C)O (single isomer, unassigned) [13a]	3.72 L/kg	1.56 µM·h	1420 nM	20.7 mL/min/kg	2.09 h	5.64 µM·h	1600 nM	0.25 h	72.3%	2.85 h				IC50 [1]: > 100 µM
C=C(C)c1cnc(-c2cc(Cl)ccc2F)cc1Nc1ccncc1C(=O)NC[C@H](C)O (single isomer, unassigned) [3a]	1.29 L/kg	2.56 µM·h	602 nM	12.8 mL/min/kg	3.86 h	10.5 µM·h	1650 nM	0.25 h	82%	3.85 h	> 100 µM			concentration at 0.5 h [4, 7]: 173 ng/mL; concentration at 1 h [4, 8]: 168 ng/mL; concentration at 0.5 h [4, 9]: 305 ng/mL; concentration at 1 h [4, 10]: 406 ng/mL; concentration at 0.5 h [4, 11]: 432 ng/mL; concentration at 1 h [4, 12]: 365 ng/mL; concentration at 0.5 h [4, 13]: 1280 ng/mL; concentration at 1 h [4, 14]: 1250 ng/mL
CC(C)c1cnc(-c2ncccc2F)cc1Nc1ncnc2[nH]ccc12 [compound 30, 2-(3-fluoropyridin-2-yl)-5-(propan-2-yl)-N-{7H-pyrrolo[2,3-d]pyrimidin-4-yl}pyridin-4-amine]											13.5 µM	73 µM	> 10 µM	
C=C(C)c1cnc(-c2cc(Cl)ccc2F)cc1Nc1ccncc1C(=O)N1CCCC1 [compound 34, 2-(5-chloro-2-fluorophenyl)-5-(prop-1-en-2-yl)-N-[3-(pyrrolidine-1-carbonyl)pyridin-4-yl]pyridin-4-amine]												> 10 µM	> 10 µM	IC50 [6]: > 10 µM
CC(C)c1cnc(-c2ncccc2F)cc1Nc1ccnc2[nH]ccc12 [compound 29, 2-(3-fluoropyridin-2-yl)-5-(propan-2-yl)-N-{1H-pyrrolo[2,3-b]pyridin-4-yl}pyridin-4-amine]											15.3 µM			IC50 [5]: 60.6 µM
CC(=O)NCCNC(=O)c1cnccc1Nc1cc(-c2cc(Cl)ccc2F)ncc1C(C)C [compound 14, N-(2-acetamidoethyl)-4-[[2-(5-chloro-2-fluoro-phenyl)-5-isopropyl-4-pyridyl]amino]pyridine-3-carboxamide]	3.86 L/kg	1.57 µM·h	3010 nM			2.54 µM·h	1880 nM	0.5 h	32.5%					
C=C(C)c1c(Nc2ccncc2C(=O)NC[C@H](C)O)cc(-c2cc(Cl)ccc2F)nc1N (single isomer, unassigned) [23a]		1.11 µM·h	2560 nM	66 mL/min/kg		0.907 µM·h	612 nM	0.25 h	16.4%		> 100 µM	> 100 µM	> 100 µM	
CCc1cnc(-c2cc(Cl)ccc2F)cc1Nc1ccncc1C(=O)NC[C@H](C)O (single isomer, unassigned) [11a]		3.15 µM·h	3610 nM	24.7 mL/min/kg	1.02 h	9.79 µM·h	3480 nM	0.25 h	62.2%	1.65 h				
CC(C)c1cnc(-c2cc(Cl)ccc2F)cc1Nc1ccncc1C(=O)NCCN [compound 19, N-(2-aminoethyl)-4-[[2-(5-chloro-2-fluoro-phenyl)-5-isopropyl-4-pyridyl]amino]pyridine-3-carboxamide]	21.1 L/kg	1.19 µM·h	520 nM			0.927 µM·h	198 nM	1 h	15.5%					Brain Concentration ([4]; PO, 0.5 h): BLQ; Brain Concentration ([4]; PO, 1 h): BLQ; concentration at 0.5 h [4, 15]: 4 nM; concentration at 1 h [4, 16]: 3 nM; concentration at 0.5 h [4, 17]: 280 nM; concentration at 1 h [4, 18]: 183 nM; concentration at 0.5 h [4, 19]: 164 nM; concentration at 1 h [4, 20]: 198 nM
CC(C)c1cnc(-c2cc(Cl)ccc2F)cc1Nc1ncnc2[nH]ncc12 [compound 36, 2-(5-chloro-2-fluorophenyl)-5-(propan-2-yl)-N-{1H-pyrazolo[3,4-d]pyrimidin-4-yl}pyridin-4-amine]														IC50 [5]: 8.93 µM; IC50 [1]: > 10 µM
C[C@H](O)CNC(=O)c1cnccc1Nc1cc(-c2cc(Cl)ccc2F)ncc1N(C)C (single isomer, unassigned) [16a]	0.967 L/kg	4.41 µM·h	3400 nM	17 mL/min/kg	0.655 h	7.5 µM·h	3420 nM	0.5 h	34.1%	2.36 h	> 1000 µM			concentration at 0.5 h [4, 15]: 48 nM; concentration at 1 h [4, 16]: 19 nM; concentration at 0.5 h [4, 21]: 48 nM; concentration at 1 h [4, 22]: 25 nM; concentration at 0.5 h [4, 17]: 3040 nM; concentration at 1 h [4, 18]: 1230 nM; concentration at 0.5 h [4, 19]: 3420 nM; concentration at 1 h [4, 20]: 1690 nM
CC(C)c1cnc(-c2cc(Cl)ccc2F)cc1Nc1ccncc1C(=O)NC[C@H](C)O (single isomer, unassigned) [2a]	4.14 L/kg	1.19 µM·h	544 nM			5.25 µM·h	1570 nM	0.5 h	88%					concentration at 0.5 h [4, 7]: 73.2 ng/mL; concentration at 1 h [4, 8]: 82.4 ng/mL; concentration at 0.5 h [4, 9]: 202 ng/mL; concentration at 1 h [4, 10]: 114 ng/mL; concentration at 0.5 h [4, 11]: 310 ng/mL; concentration at 1 h [4, 12]: 366 ng/mL; concentration at 0.5 h [4, 13]: 1570 ng/mL; concentration at 1 h [4, 14]: 905 ng/mL
Fc1ccc(Cl)cc1-c1cc(Nc2ccnc3[nH]ccc23)c(C2CC2)cn1 [compound 32, 2-(5-chloro-2-fluorophenyl)-5-cyclopropyl-N-{1H-pyrrolo[2,3-b]pyridin-4-yl}pyridin-4-amine]													3.33 µM	IC50 [5]: 5.84 µM
C=C(C)c1cnc(-c2cc(Cl)ccc2F)cc1Nc1ccncc1C(=O)NCCO [compound 26, 4-[[2-(5-chloro-2-fluoro-phenyl)-5-isopropenyl-4-pyridyl]amino]-N-(2-hydroxyethyl)pyridine-3-carboxamide]	6.21 L/kg	1.76 µM·h	3000 nM	44.3 mL/min/kg	1.62 h	2.36 µM·h	1290 nM	0.5 h	26.9%	1.66 h	> 100 µM	> 100 µM	> 100 µM	
C=C(C)c1cnc(-c2cc(Cl)ccc2F)cc1Nc1ccncc1C(=O)N[C@@H](C)CO [7a, (S)-4-(2-(5-chloro-2-fluorophenyl)-5-(prop-1-en-2-yl)pyridin-4-ylamino)-N-(1-hydroxypropan-2-yl)nicotinamide]												10.9 µM	> 100 µM	
CC(C)c1cnc(-c2cc(Cl)ccc2F)cc1Nc1ncnc2[nH]ccc12 [compound 35, 2-(5-chloro-2-fluorophenyl)-5-(propan-2-yl)-N-{7H-pyrrolo[2,3-d]pyrimidin-4-yl}pyridin-4-amine]														IC50 [5]: 5.45 µM
CC(C)c1cnc(-c2cc(Cl)ccc2F)cc1Nc1ncncc1C(=O)NC[C@H](C)O (single isomer, unassigned) [12a]	2.80 L/kg	3.69 µM·h	2150 nM	19.8 mL/min/kg	1.63 h	14.5 µM·h	4280 nM	0.5 h	78.3%	1.72 h				
C=C(C)c1cnc(-c2cc(Cl)ccc2F)cc1Nc1ncncc1C(=O)NC[C@H](C)O [4a, (S)-4-(2-(5-chloro-2-fluorophenyl)-5-(prop-1-en-2-yl)pyridin-4-ylamino)-N-(2-hydroxypropyl)pyrimidine-5-carboxamide]												10.6 µM		
CC(C)c1cnc(-c2cc(Cl)ccc2F)cc1Nc1ccncc1C(=O)NC(CO)CO [compound 22, 4-[[2-(5-chloro-2-fluoro-phenyl)-5-isopropyl-4-pyridyl]amino]-N-[2-hydroxy-1-(hydroxymethyl)ethyl]pyridine-3-carboxamide]	2.43 L/kg	3.77 µM·h	2460 nM		1.53 h	16.2 µM·h	7070 nM	0.5 h	86.6%					concentration at 0.5 h [4, 15]: 7 nM; concentration at 1 h [4, 16]: 5 nM; concentration at 0.5 h [4, 21]: 20 nM; concentration at 1 h [4, 22]: 15 nM; concentration at 0.5 h [4, 17]: 1690 nM; concentration at 1 h [4, 18]: 967 nM; concentration at 0.5 h [4, 19]: 7070 nM; concentration at 1 h [4, 20]: 3530 nM
